Test results from US20140309210A1, “INDAZOLE COMPOUNDS, COMPOSITIONS AND METHODS OF USE THEREOF” (Genentech, Inc., priority 2011, published 2014).

Each compound was assayed against T1, purified ITK (Invitrogen PV3875) (Homo sapiens, UniProt Q08881) (assay: ITK peptide phosphorylation assay (Caliper LabChip or LCMS)). Conditions: Table 1, Examples 141-279.
T1 construct: purchased Invitrogen PV3875
T1 sequence (Q08881 1-620): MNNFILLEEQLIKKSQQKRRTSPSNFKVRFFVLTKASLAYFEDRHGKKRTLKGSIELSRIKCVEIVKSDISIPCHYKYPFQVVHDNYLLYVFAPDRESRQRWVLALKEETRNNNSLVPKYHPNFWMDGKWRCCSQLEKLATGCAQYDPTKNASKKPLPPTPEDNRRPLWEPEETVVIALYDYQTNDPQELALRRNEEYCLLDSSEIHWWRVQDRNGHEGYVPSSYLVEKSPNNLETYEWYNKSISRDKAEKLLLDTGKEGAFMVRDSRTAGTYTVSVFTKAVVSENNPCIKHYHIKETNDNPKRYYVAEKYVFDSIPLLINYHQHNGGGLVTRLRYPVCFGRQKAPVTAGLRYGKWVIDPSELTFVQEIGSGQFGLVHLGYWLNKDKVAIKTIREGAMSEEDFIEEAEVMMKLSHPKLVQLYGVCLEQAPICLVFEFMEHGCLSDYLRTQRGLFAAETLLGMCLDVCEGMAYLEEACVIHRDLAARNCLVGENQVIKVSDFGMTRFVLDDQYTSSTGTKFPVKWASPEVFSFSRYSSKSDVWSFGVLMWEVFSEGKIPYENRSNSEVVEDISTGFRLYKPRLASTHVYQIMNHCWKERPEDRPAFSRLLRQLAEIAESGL
Assay type: biochemical
In short: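 Purified human ITK peptide phosphorylation, quenched with EDTA (50 mM final) for Caliper LabChip separation or TCA (5% v/v final) for UPLC-MS/MS MRM quantification. Ki derived via Morrison tight-binding equation, corrected for competitive inhibition using ATP concentration relative to Km,app.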
In the case of `CN(CCO)c1nc(Cn2cc(NC(=O)c3n[nH]c4cc(-c5cn[nH]c5)ccc34)cn2)cs1` [Example 141, N-[1-[[2-[2-hydroxyethyl(meth-yl)amino]thiazol-4-yl]methyl]pyrazol-4-yl]-6-(1H-pyrazol-4-yl)-1H-indazole-3-carboxamide], the Ki is reported as 2.8 nM. `N#Cc1cccc(Cn2cc(NC(=O)c3n[nH]c4cc(-n5ccnc5)ccc34)cn2)c1` [Example 142, N-[1-[(3-cyanophenyl)meth-yl]pyrazol-4-yl]-6-imidazol-1-yl-1H-indazole-3-carboxamide] was tested, and the Ki was 32.4 nM. For `O=C(Nc1cnn(Cc2cncc(Br)c2)c1)c1n[nH]c2cc(-c3cn[nH]c3)ccc12` [Example 143, N-[1-[(5-bromo-3-pyridyl)methyl]py-razol-4-yl]-6-(1H-pyrazol-4-yl)-1H-indazole-3-carboxamide], the Ki was 0.614 nM. For `N#Cc1cccc(Cn2cc(NC(=O)c3n[nH]c4cc(Br)c(F)cc34)cn2)c1` [Example 146, 6-bromo-N-[1-[(3-cyanophenyl)meth-yl]pyrazol-4-yl]-5-fluoro-1H-indazole-3-carboxamide], the Ki was 111 nM. For `N#Cc1cccc(Cn2cc(NC(=O)c3n[nH]c4cc(-c5cn[nH]c5)c(F)cc34)cn2)c1` [Example 147, N-[1-[(3-cyanophenyl)meth-yl]pyrazol-4-yl]-5-fluoro-6-(1H-pyrazol-4-yl)-1H-indazole-3-carboxamide], the Ki was 7.79 nM. Compound `Cc1cc2c(C(=O)Nc3cnn(Cc4cccc(C#N)c4)c3)n[nH]c2cc1-c1cncc(C#N)c1` [Example 148, N-[1-[(3-cyanophenyl)meth-yl]pyrazol-4-yl]-6-(5-cyano-3-pyridyl)-5-methyl-1H-indazole-3-carboxamide] has a Ki of 57.2 nM. Work on `Cc1cc2c(C(=O)Nc3cnn(Cc4cccc(C#N)c4)c3)n[nH]c2cc1-c1cccnc1` [Example 149, N-[1-[(3-cyanophenyl)meth-yl]pyrazol-4-yl]-5-methyl-6-(3-pyridyl)-1H-indazole-3-carboxamide] yielded a Ki of 71.1 nM. With `Cc1cc2c(C(=O)Nc3cnn(Cc4cccc(C#N)c4)c3)n[nH]c2cc1-c1ccc(N)nc1` [Example 150, 6-(6-amino-3-pyridyl)-N-[1-[(3-cyanophenyl)meth-yl]pyrazol-4-yl]-5-methyl-1H-indazole-3-carboxamide] the Ki was 20.1 nM. With `Cc1cc2c(C(=O)Nc3cnn(Cc4cccc(C#N)c4)c3)n[nH]c2cc1-c1cn[nH]c1` [Example 151, N-[1-[(3-cyanophenyl)meth-yl]pyrazol-4-yl]-5-methyl-6-(1H-pyrazol-4-yl)-1H-indazole-3-carboxamide] the Ki was 16.4 nM. `N#Cc1cccc(Cn2cc(NC(=O)c3n[nH]c4cc(-c5ccc(N)nc5)c(F)cc34)cn2)c1` [Example 152, 6-(6-amino-3-pyridyl)-N-[1-[(3-cyanophenyl)meth-yl]pyrazol-4-yl]-5-fluoro-1H-indazole-3-carboxamide] gave a Ki of 12.8 nM. In the case of `N#Cc1cccc(Cn2cc(NC(=O)c3n[nH]c4cc(-c5cccnc5)c(F)cc34)cn2)c1` [Example 153, N-[1-[(3-cyanophenyl)meth-yl]pyrazol-4-yl]-5-fluoro-6-(3-pyridyl)-1H-indazole-3-carboxamide], the Ki is reported as 57.5 nM. `N#Cc1cccc(Cn2cc(NC(=O)c3n[nH]c4cc(-c5cncnc5)c(F)cc34)cn2)c1` [Example 154, N-[1-[(3-cyanophenyl)meth-yl]pyrazol-4-yl]-5-fluoro-6-pyrimidin-5-yl-1H-indazole-3-carboxamide] was tested, and the Ki was 112 nM. Work on `N#Cc1cccc(Cn2cc(NC(=O)c3n[nH]c4cc(-c5cc[nH]n5)c(F)cc34)cn2)c1` [Example 155, N-[1-[(3-cyanophenyl)meth-yl]pyrazol-4-yl]-5-fluoro-6-(1H-pyrazol-3-yl)-1H-indazole-3-carboxamide] yielded a Ki of 99.9 nM. Work on `Cc1cc2c(C(=O)Nc3cnn(Cc4cccc(C#N)c4)c3)n[nH]c2cc1-c1cc[nH]n1` [Example 156, N-[1-[(3-cyanophenyl)meth-yl]pyrazol-4-yl]-5-methyl-6-(1H-pyrazol-3-yl)-1H-indazole-3-carboxamide] yielded a Ki of 80.8 nM. In the case of `CN(C)CCC(c1ccccc1)n1cc(NC(=O)c2n[nH]c3cc(-c4cccnc4)ccc23)cn1` (stereo not shown) [Example 157, N-[1-[3-(dimethylamino)-1-phenyl-propyl]pyrazol-4-yl]-6-(3-pyridyl)-1H-indazole-3-carboxamide], the Ki is reported as 7.81 nM. In the case of `O=C(Nc1cnn(Cc2csc(N3CCC(O)C3)n2)c1)c1n[nH]c2cc(-c3cn[nH]c3)ccc12` (stereo not shown) [Example 158, N-[1-[[2-(3-hydroxypyrrolidin-1-yl)thiazol-4-yl]methyl]pyrazol-4-yl]-6-(1H-pyrazol-4-yl)-1H-indazole-3-carboxamide], the Ki is reported as 3.93 nM. `O=C(Nc1cnn(Cc2csc(N3CCC(O)CC3)n2)c1)c1n[nH]c2cc(-c3cn[nH]c3)ccc12` [Example 159, N-[1-[[2-(4-hydroxy-1-piperidyl)thiazol-4-yl]methyl]pyrazol-4-yl]-6-(1H-pyrazol-4-yl)-1H-indazole-3-carboxamide] showed a Ki of 3.11 nM. Work on `O=C(Nc1cnn(Cc2csc(C3CCNCC3)n2)c1)c1n[nH]c2cc(-c3cn[nH]c3)ccc12` [Example 160, N-[1-[[2-(4-piperidyl)thiazol-4-yl]methyl]pyrazol-4-yl]-6-(1H-pyrazol-4-yl)-1H-indazole-3-carboxamide] yielded a Ki of 4.65 nM. `O=C(Nc1cnn(Cc2cccc(N3CCC(O)C3)c2)c1)c1n[nH]c2cc(-c3cn[nH]c3)ccc12` (stereo not shown) [Example 161, N-[1-[[3-(3-hydroxypyrrolidin-1-yl)phenyl]meth-yl]pyrazol-4-yl]-6-(1H-pyrazol-4-yl)-1H-indazole-3-carboxamide] showed a Ki of 1.15 nM. With `O=C(Nc1cnn(C(CCN2CCOCC2)c2ccccc2)c1)c1n[nH]c2cc(-c3cn[nH]c3)ccc12` (stereo not shown) [Example 162, N-[1-(3-morpholino-1-phenyl-propyl)pyrazol-4-yl]-6-(1H-pyrazol-4-yl)-1H-indazole-3-carboxamide] the Ki was 0.28 nM. `O=C(Nc1cnn(Cc2cncs2)c1)c1n[nH]c2cc(-c3cn[nH]c3)ccc12` [Example 163, 6-(1H-pyrazol-4-yl)-N-[1-(thiazol-5-ylmethyl)pyrazol-4-yl]-1H-indazole-3-carboxamide] showed a Ki of 1.16 nM. For `N#Cc1cccc(Cn2cc(NC(=O)c3n[nH]c4cc(-c5cncnc5)ccc34)cn2)c1` [Example 164, N-[1-[(3-cyanophenyl)meth-yl]pyrazol-4-yl]-6-pyrimidin-5-yl-1H-indazole-3-carboxamide], the Ki was 16.9 nM. `CN1CC=C(c2ccc3c(C(=O)Nc4cnn(Cc5cccc(C#N)c5)c4)n[nH]c3c2)CC1` [Example 165, N-[1-[(3-cyanophenyl)meth-yl]pyrazol-4-yl]-6-(1-methyl-3,6-dihydro-2H-pyridin-4-yl)-1H-indazole-3-carboxamide] was tested, and the Ki was 654 nM. Work on `COc1cncc(-c2ccc3c(C(=O)Nc4cnn(Cc5cccc(C#N)c5)c4)n[nH]c3c2)c1` [Example 166, N-[1-[(3-cyanophenyl)meth-yl]pyrazol-4-yl]-6-(5-methoxy-3-pyridyl)-1H-indazole-3-carboxamide] yielded a Ki of 7.74 nM. `O=C(Nc1cnn(Cc2c[nH]cn2)c1)c1n[nH]c2cc(-c3cn[nH]c3)ccc12` [Example 167, N-[1-(1H-imidazol-4-ylmethyl)pyrazol-4-yl]-6-(1H-pyrazol-4-yl)-1H-indazole-3-carboxamide] showed a Ki of 7.68 nM. In the case of `O=C(Nc1cn[nH]c1)c1n[nH]c2cc(-c3cn[nH]c3)ccc12` [Example 168, N,6-bis(1H-pyrazol-4-yl)-1H-indazole-3-carboxamide], the Ki is reported as 21.6 nM.

Same assay, conditions: Table 2, Examples 1-140, class symbols
For `CN(C)CC(c1ccccc1)n1cc(NC(=O)c2n[nH]c3cc(-c4cn[nH]c4)ccc23)cn1` (stereo not shown) [Example 135, N-(1-(2-(dimethylamino)-1-phenylethyl)-1H-pyrazol-4-yl)-6-(1H-pyrazol-4-yl)-1H-indazole-3-carboxamide], the Ki was 0.01 to 1 nM. `CC[C@@H](c1ccccc1)n1cc(NC(=O)c2n[nH]c3cc(-c4ccc(N)nc4)ccc23)cn1` [Example 136, (S)-6-(6-aminopyridin-3-yl)-N-(1-(1-phenylpropyl)-1H-pyrazol-4-yl)-1H-indazole-3-carboxamide] gave a Ki of 1 to 100 nM. Compound `CC[C@@H](c1ccccc1)n1cc(NC(=O)c2n[nH]c3cc(-c4cc[nH]n4)ccc23)cn1` [Example 137, (S)—N-(1-(1-phenylpropyl)-1H-pyrazol-4-yl)-6-(1H-pyrazol-3-yl)-1H-indazole-3-carboxamide] has a Ki of 1 to 100 nM. Work on `CC[C@@H](c1ccccc1)n1cc(NC(=O)c2n[nH]c3cc(-c4cncnc4)ccc23)cn1` [Example 138, (S)—N-(1-(1-phenylpropyl)-1H-pyrazol-4-yl)-6-(pyrimidin-5-yl)-1H-indazole-3-carboxamide] yielded a Ki of 1 to 100 nM. `CC[C@@H](c1ccccc1)n1cc(NC(=O)c2n[nH]c3cc(-c4cccnc4)ccc23)cn1` [Example 139, (S)—N-(1-(1-phenylpropyl)-1H-pyrazol-4-yl)-6-(pyridin-3-yl)-1H-indazole-3-carboxamide] was tested, and the Ki was 1 to 100 nM. `CC[C@@H](c1ccccc1)n1cc(NC(=O)c2n[nH]c3cc(-c4ccncc4)ccc23)cn1` [Example 140, (S)—N-(1-(1-phenylpropyl)-1H-pyrazol-4-yl)-6-(pyridin-4-yl)-1H-indazole-3-carboxamide] was tested, and the Ki was 1 to 100 nM.

Same assay, conditions: Table 3, specific values for certain examples
`CC[C@@H](c1ccccc1)n1cc(NC(=O)c2n[nH]c3cc(-c4cc[nH]n4)ccc23)cn1` [Example 137, (S)—N-(1-(1-phenylpropyl)-1H-pyrazol-4-yl)-6-(1H-pyrazol-3-yl)-1H-indazole-3-carboxamide] showed a Ki of 9.9 nM. Compound `CC[C@@H](c1ccccc1)n1cc(NC(=O)c2n[nH]c3cc(-c4cncnc4)ccc23)cn1` [Example 138, (S)—N-(1-(1-phenylpropyl)-1H-pyrazol-4-yl)-6-(pyrimidin-5-yl)-1H-indazole-3-carboxamide] has a Ki of 5.6 nM.
